Source: publication PMC11477875, “Ecotoxicity and Mutagenicity Assessment of Novel Antifungal Agents VT-1161 and T-2307” (Molecules, 2024)
In brackets after ≈: the same amount, converted by molar mass. Where two headings read alike, the source gives them in different places.

Experiments:
D. magna [1] = assay: Literature D. magna toxicity data used for hazard ranking; format: in vivo, Daphnia magna; settings: for Hazard Ranking: GHS, from literature EC50 D. magna 48 h
Text: (§1) The hazard ranking of antifungal compounds is crucial for understanding their environmental impact and guiding regulatory decisions. This study utilizes data from existing literature to classify the effective concentrations (EC50) of various antifungal compounds according to the Globally Harmonized System of Classification and Labelling of Chemicals (GHS).
(§2) Furthermore, multiple fungicide compounds were classified according to the Globally Harmonized System of Classification and Labeling of Chemicals (GHS) to compare the hazard ranking of substances currently on the market and the two substances of this study.

D. magna [2] = settings: cited from earlier work
Green algae [3] = settings: cited from earlier work
Green algae [4] = assay: Literature green algae toxicity data used for hazard ranking; format: cell-based; settings: GHS
Text: as §1, §2

R. subcapitata [5] = assay: Literature R. subcapitata toxicity data used for hazard ranking; format: cell-based, Raphidocelis subcapitata; settings: GHS, from literature EC50 R. subcapitata 72 h
Text: as §1, §2

R. subcapitata [6] = settings: cited from earlier work
[7] = tested on: Salmonella typhimurium strain TA100; assay: Salmonella typhimurium mutagenicity assay; format: cell-based; settings: for mutagenicity (result in words): TA100, 1.56 and 50 mg L^−1; for mutagenicity ratio: TA100, both concentrations 1.56 and 50 mg L^−1, mutagenic if ratio 2 or greater
Protocol: The mutagenicity in Salmonella typhimurium strain TA100 was assessed by observing the potential mutations that would allow the bacteria to grow without needing histidine (his-), following the protocol. For the assay, a kit obtained from ECOTOX LDS (Milan, Italy) was used to perform the test. Two exposure concentrations of 1.56 and 50 mg L^−1 of each compound were used and bromocresol purple was added as a pH indicator. Distilled water served as the negative control and sodium azide as the positive control for TA100 without S9 ([…]).
The plates were incubated at 37 °C for 3 to 5 days and sealed in hermetic plastic bags to avoid contamination. […] Wells that remained purple indicated a negative result (non-mutagenic compound).
For the test organism S. typhimurium, results were expressed as the mutagenicity ratio. This was calculated by dividing the number of revertants (his+) in the treatments by the number of naturally occurring (negative control). The treatments were considered mutagenic if the mutagenicity ratio was 2 or greater.

Raphidocelis subcapitata = Raphidocelis subcapitata growth inhibition test (this study); format: cell-based; settings: for Hazard Ranking: GHS, from EC50 R. subcapitata 72 h, this study
Protocol: The growth inhibition test with R. subcapitata was conducted following ISO guidelines using an in-house culture at the Hygiene Department at the UNINA. Algal cultures were incubated in Erlenmeyer flasks at 20 ± 1 °C on a shaker at 100 rpm and under continuous daylight fluorescent tube illumination of approximately 6300 lux with […]. The initial inoculum concentration was set at 10^4 cells mL^−1, exposed to the concentrations of 1.56, 3.12, 6.25, 12.50, 25, and 50 mg L^−1 and to a negative control of freshwater media. Six replicates were set up for both the control samples and the treatments and were maintained under the same conditions as the algal culture for 72 h.
(§3) Data were analyzed with R Studio for Windows (Version 2023.06.0). The effective concentrations causing 50% of the response on the organisms A. fischeri, R. subcapitata, and D. magna were estimated by fitting on dose–response models using the extension package “drc” [49]. For the data analysis of R. subcapitata and A. fischeri tests, the measurements were normalized to the control to estimate an inhibition percentage.

Aliivibrio fischeri = Aliivibrio fischeri luminescence inhibition test (this study); format: cell-based
Protocol: The luminescence inhibition test was performed on Allivibrio fischeri (strain NRRL-B-11177), purchased from WaterTox STD (ECOtest S.L., Valencia, Spain), and performed according to [46]. The luminescence was measured using a Microtox luminometer Model 500, (AZUR Environmental, Carlsbad, CA, USA) equipped with a cell incubated at a constant temperature of 15 ± 1 °C, and readings were taken after 30 min of exposure at a wavelength of 490 nm. The Osmotic Adjustment Solution was added to the media to adapt the marine bacterium to freshwater. […] Data were analyzed with R Studio for Windows (Version 2023.06.0). The effective concentrations causing 50% of the response on the organisms A. fischeri, R. subcapitata, and D. magna were estimated by fitting on dose–response models using the extension package “drc” [49]. For the data analysis of R. subcapitata and A. fischeri tests, the measurements were normalized to the control to estimate an inhibition percentage.

Daphnia magna = Daphnia magna acute immobilization test (this study); format: in vivo; settings: for immobility: 50 mg L^−1; for Hazard Ranking: GHS, from EC50 D. magna 48 h, this study
Protocol: The immobilization tests with D. magna were conducted following ISO guidelines using an in-house culture at the Hygiene Department at the UNINA. Organisms under 24 h old were exposed to concentrations of 1.56, 3.12, 6.25, 12.50, 25, and 50 mg L^−1 and to a negative control of freshwater media. Each concentration had four replicates containing five organisms each. The exposure was conducted at a temperature of 20 ± 1 °C and under continuous illumination of approx. 1000 lux. Immobilization was assessed at 24 and 48 h after exposure using a stereomicroscope.
as §3

[8] = tested on: A. fischeri, R. subcapitata, and D. magna; assay: Summary over the species tested (A. fischeri, R. subcapitata, D. magna) and GHS classification
Protocol: as §3, §2

For `OC(Cn1cncn1)(Cn1cncn1)c1ccc(F)cc1F` [Fluconazole], the “GHS hazard category (in words)” value (D. magna [1]; from literature EC50 D. magna, EC50 > 100 mg L^−1) is given as “not harmful”, the EC50 (D. magna [2]; 48 h ref 30) is given as 0.002766 µg/mL (≈ 0.00903 µM) and the EC50 (D. magna [2]; 48 h ref 37) is given as 530 µg/mL (≈ 1730 µM). For the same molecule, the EC50 (Green algae [3]; 96 h ref 30) was 0.001162 µg/mL (≈ 0.00379 µM) and the EC50 (Green algae [3]; 96 h ref 37) was 55.4 µg/mL (≈ 181 µM).

In the case of `CC(=O)N1CCN(c2ccc(OCC3COC(Cn4ccnc4)(c4ccc(Cl)cc4Cl)O3)cc2)CC1` (centres unmarked) [Ketoconazole], the “Hazard Ranking” value (Green algae [4]; from literature EC50 green algae 72 h) is reported as “**** (Very toxic (≤1 mg L^−1))”, the “Hazard Ranking” value (Green algae [4]; from literature EC50 green algae 96 h) is reported as “*** (Toxic (<1 mg L^−1 ≤ 10 mg L^−1))” and the “Hazard Ranking” value (R. subcapitata [5]) is reported as “**** (Very toxic (≤1 mg L^−1))”. For the same molecule, the “Hazard Ranking” value (D. magna [1]) was “*** (Toxic (<1 mg L^−1 ≤ 10 mg L^−1))”, the EC50 (R. subcapitata [6]; 72 h ref 36) was 0.28 µg/mL (≈ 0.527 µM) and the EC50 (R. subcapitata [6]; 72 h ref 40) was 0.3 µg/mL (≈ 0.565 µM). The EC50 (D. magna [2]; 48 h ref 30) was 2.39 µg/mL (≈ 4.5 µM), the EC50 (D. magna [2]; 48 h ref 34) was 6.57 µg/mL (≈ 12.4 µM) and the EC50 (D. magna [2]; 48 h ref 38) was 6.57 µg/mL (≈ 12.4 µM). The EC50 (D. magna [2]; 48 h ref 39, listed as ketoconazole) was 1.51 µg/mL (≈ 2.84 µM), the EC50 (D. magna [2]; 48 h ref 39) was 1.5 µg/mL (≈ 2.82 µM) and the EC50 (Green algae [3]; 72 h ref 38) was 0.28 µg/mL (≈ 0.527 µM). For the same molecule, the EC50 (Green algae [3]; 96 h ref 30) was 4.36 µg/mL (≈ 8.2 µM).

In the case of `N=C(N)c1ccc(OCCCC2CCN(CCCOc3ccc(C(=N)N)cc3)CC2)cc1` [T-2307], the “mutagenicity (result in words)” value [7] is reported as “non-positive mutagenicity”, the mutagenicity ratio [7] is reported as less than 2 and the “Hazard Ranking” value (Raphidocelis subcapitata) is reported as “** (Harmful: (<10 mg L^−1 ≤ 100 mg L^−1))”. The “EC50 (effective concentration causing 50% growth inhibition)” value (Raphidocelis subcapitata; R. subcapitata, 72 h) was 14.34 µg/mL (≈ 32.8 µM), the growth inhibition (Raphidocelis subcapitata; R. subcapitata, 72 h, 50 mg L^−1) was “around 82%” and the “EC50 (effective concentration causing 50% luminescence inhibition)” value (Aliivibrio fischeri; A. fischeri, 30 min) was 22.58 µg/mL (≈ 51.6 µM). For the same molecule, the luminescence inhibition (Aliivibrio fischeri; A. fischeri, 30 min, 50 mg L^−1) was roughly 75%, the “EC50 (effective concentration causing 50% of immobility)” value (Daphnia magna; D. magna, 48 h) was 17.93 µg/mL and the immobility (Daphnia magna; D. magna, 48 h) was 90%. The “Hazard Ranking” value (Daphnia magna) was “** (Harmful: (<10 mg L^−1 ≤ 100 mg L^−1))”.

In the case of `CC(C)(C)C(O)(CCc1ccc(Cl)cc1)Cn1cncn1` (centres unmarked) [Tebuconazole], the “Hazard Ranking” value (R. subcapitata [5]) is listed as “*** (Toxic (<1 mg L^−1 ≤ 10 mg L^−1))”, the “Hazard Ranking” value (D. magna [1]) is listed as “*** (Toxic (<1 mg L^−1 ≤ 10 mg L^−1))” and the EC50 (R. subcapitata [6]; 72 h ref 42) is listed as 2.09 µg/mL (≈ 6.79 µM). For the same molecule, the EC50 (D. magna [2]; 48 h ref 41) was 2.37 µg/mL (≈ 7.7 µM) and the EC50 (D. magna [2]; 48 h ref 42) was 6.75 µg/mL (≈ 21.9 µM).

In the case of `O[C@@](Cn1cnnn1)(c1ccc(F)cc1F)C(F)(F)c1ccc(-c2ccc(OCC(F)(F)F)cc2)cn1` [VT-1161, oteseconazole], the “mutagenicity (result in words)” value [7] is reported as “non-positive mutagenicity”, the mutagenicity ratio [7] is reported as less than 2 and the EC50 ([8]; A. fischeri, R. subcapitata, D. magna, read-out: EC50 values, range over the species tested) is reported as 20.9 to 27.9 µg/mL (≈ 39.7 to 52.9 µM). For the same molecule, the “GHS classification (in words)” value ([8]; EC50 values between 10 mg L^−1 and 100 mg L^−1) was “harmful”, the “Hazard Ranking” value (Raphidocelis subcapitata) was “** (Harmful: (<10 mg L^−1 ≤ 100 mg L^−1))” and the EC50 (Raphidocelis subcapitata; Raphidocelis subcapitata, read-out: EC50 (effective concentration causing 50% growth inhibition), R. subcapitata, 72 h) was 27.9 µg/mL (≈ 52.9 µM). For the same molecule, the inhibition at 50 µg/mL (Raphidocelis subcapitata; Raphidocelis subcapitata, R. subcapitata, 72 h, 50 mg L^−1) was roughly 65%, the EC50 (Aliivibrio fischeri; Aliivibrio fischeri, 0.5 h, read-out: EC50 (effective concentration causing 50% luminescence inhibition), A. fischeri, 30 min) was 22.4 µg/mL (≈ 42.5 µM) and the inhibition at 50 µg/mL (Aliivibrio fischeri; Aliivibrio fischeri, 0.5 h, A. fischeri, 30 min, 50 mg L^−1) was roughly 63%. For the same molecule, the “Hazard Ranking” value (Aliivibrio fischeri; GHS, from EC50 A. fischeri 30 min, this study) was “** (Harmful: (<10 mg L^−1 ≤ 100 mg L^−1))”, the immobility (Daphnia magna; D. magna, 48 h) was 100% and the EC50 (Daphnia magna; Daphnia magna, read-out: EC50 (effective concentration causing 50% of immobility), D. magna, 48 h) was 20.9 µg/mL (≈ 39.7 µM). For the same molecule, the “Hazard Ranking” value (Daphnia magna) was “** (Harmful: (<10 mg L^−1 ≤ 100 mg L^−1))”.

For `CC(C)(C)C(=O)C(Oc1ccc(Cl)cc1)n1ccnc1` (centres unmarked) [climbazole], the EC50 (D. magna [2]; exposure time not printed ref 30) is listed as 15.99 µg/mL (≈ 54.6 µM).
